Literature values in patent US8334298B2, “Treatment or prevention of ovarian hyperstimulation syndrome (OHSS) using a dopamine agonist” (Ferring International Center S.A., priority 2005, dated 2012).

Settings: oncolytic models; cited from earlier work

For `Cc1cc(C)c(/C=C2\C(=O)Nc3ccccc32)[nH]1` [SU5416], the toxic effects is listed as “serious toxic effects”.
